Laboratory results from PubChem BioAssay AID493130 (Broad Institute, 2011).
Results filed as inconclusive are left out. The source made the active and inactive calls.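 Rule for the calls: active = signal-lowering compounds whose fitted half-maximal concentration is at most ten times their highest tested dose; inconclusive = flat fit between -30 and -70%, or poor fit; inactive = flat within 30%, signal rising, or potency beyond limit.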

Each compound was assayed against POS-1 (Caenorhabditis elegans) binding to mex-3 RNA (assay: C. elegans POS-1 RNA interaction disruptors – biochemical, fluorescence polarization, cherry-picked samples, set 2, counter-screen for MEX-5 RNA-binding inhibitor project, dose response (AID 493130;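 note: POS-1 as maltose binding protein fusion made in E. coli with FITC RNA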)). Settings: POS-1/mex-3 RNA fluorescence polarization, 1 h.

| Compound | AC50 |
| --- | --- |
| CCCC1=NN2C(=N)/C(=C\c3ccc(SCc4ccco4)o3)C(=O)N=C2S1 | 0.699 µM |
| Nc1ccc2nc3c(=O)n(CCc4ccccc4)c(=O)[nH]c3nc2c1 | 1.22 µM |
| O=c1[nH]c(-[n+]2ccccc2)c(/C=N/NC([S-])=Nc2ccccc2)s1 | 5.9 µM |
| CCn1c(SCc2nc3sc(C(=O)O)c(C)c3c(=O)[nH]2)nc2ccccc21 | 10.3 µM |
| CCOc1ccc(N=Nc2c(=O)[nH]n3c(=O)cc(C)[nH]c23)cc1 | > 10 µM (inactive) |
| Cn1c(=O)c(Nc2ccc(Cl)cc2)c2c3c(cccc31)C(=O)c1ccccc1-2 | 0.907 µM |
| O=C1c2ccccc2C(=O)N1/N=C/c1ccc(O)c(O)c1O | 2.31 µM |
| O=C(N/N=C/C1C(=O)NC(=S)N(c2ccccc2)C1=O)c1cc(Br)c(O)c(Br)c1 (configuration not stated) | 7.64 µM |
| CC1=C(C#N)C(=O)N(C2CCS(=O)(=O)C2)C(=O)/C1=C\c1ccco1 (configuration not stated) | 3.66 µM |

Same assay, conditions: POS-1/mex-3 RNA fluorescence polarization, 1 h; at 10 µM (top of the series)

| Compound | activity change, negative = inhibition |
| --- | --- |
| COc1ccc(CCNc2c3ccccc3nc3ccccc23)cc1OC | inactive |
| CN1CN(C)c2cccc3cccc1c23 | inactive |
| Cc1cc(/C=C2\C(=O)NC(=O)N(c3cccc(F)c3)C2=O)c(C)n1-c1cc(C(=O)O)cc(C(=O)O)c1 | inactive |
| Cc1cc(/C=C2\C(=O)NC(=O)N(c3cccc(Br)c3)C2=O)c(C)n1C | inactive |
| Cc1cccn2c(=O)c3cc(C(=O)NC(C)C)c(=N)n(Cc4ccncc4)c3nc12 | inactive |
| CC(=O)O[C@@H]1[C@@H](O)[C@@H](O)[C@H](Oc2c(-c3ccc(O)cc3)oc3c(CC=C(C)C)c(O)cc(O)c3c2=O)O[C@H]1C | inactive |
| CC1=C/C(=C(/c2cc(C)c(O)c(Br)c2)c2ccccc2S(=O)(=O)O)C=C(Br)C1=O | inactive |
| C=CCn1c(Cc2nc3ccc(Cl)cc3[nH]2)n[nH]c1=S | inactive |
| CC(C#N)(Nc1ccc(Cl)cc1)c1cccnc1 (configuration not stated) | inactive |
| CCc1ccc(N2C(=O)NC(=O)/C(=C/c3cccn3CCOc3ccc(C(C)CC)cc3)C2=O)cc1 (configuration not stated) | inactive |
| Nc1nc(-c2ccc(Cl)cc2)nnc1-c1ccc(Br)cc1 | inactive |
| COc1ccc(N=C2S/C(=C\c3ccc(N4CCOCC4)o3)C(=O)N2CCc2c[nH]c3ccccc23)cc1 | inactive |
| COc1cccc(NC2=C(NCCO)C(=O)c3ccccc3C2=O)c1 | inactive |
| CCC(=O)N(CC)C1=C(O)c2ccccc2C(=O)C1=O | inactive |
| Cc1nc2ccc(NC(=O)NC(=O)c3c(Cl)cccc3Cl)cc2o1 | inactive |
| Cc1c(CN2CCCC(C)C2)c(O)n(CCO)c(=O)c1C#N (configuration not stated) | inactive |
| Nc1ccc(Cc2ccc(N)c(C(=O)O)c2)cc1C(=O)O | inactive |
| Cc1nn(C(C)C(=O)NNC(=S)Nc2ccc(Cl)cc2)c(C)c1[N+](=O)[O-] (configuration not stated) | inactive |
| COCCNc1nnc(SCC(=O)NNC(=O)c2ccc([N+](=O)[O-])cc2)s1 | inactive |
| O=c1[nH]cnc2c1C(c1ccccc1)c1c(nc[nH]c1=O)O2 | inactive |
| Cc1cc(/C=C2\SC(=S)N(Cc3ccco3)C2=O)c(C)n1-c1ccccc1 | inactive |
| CCOC(=O)CNc1nc2ccccc2n2c(C)nnc12 | inactive |
| CN1CCCc2cc(C=O)ccc21 | inactive |
| CN1CCc2c(sc(NC(=O)C3CCCN3S(=O)(=O)c3ccc(Cl)s3)c2C(N)=O)C1 (configuration not stated) | inactive |
| COc1ccc(OC)c(-n2c(-c3cc(-c4ccco4)[nH]n3)n[nH]c2=S)c1 | inactive |

| Compound | activity change, negative = inhibition |
| --- | --- |
| CN(C)C1C(=O)C(C(N)=O)=C(O)C2(O)C(=O)C3=C(O)c4c(O)cccc4C(C)(O)C3CC12 (configuration not stated) | inactive |
| O=c1c(OC2OC(CO)C(O)C(O)C2O)c(-c2ccc(O)c(O)c2)oc2cc(O)cc(O)c12 (configuration not stated) | inactive |
| O=C(N/N=C/c1c(O)ccc2ccccc12)c1ccc[n+](CCO)c1 | inactive |
| O=C(O)c1[nH]c2ccccc2c1C(c1cc(Br)ccc1O)c1c(C(=O)O)[nH]c2ccccc12 | inactive |
| COc1ccc2c(c1)-c1ccccc1S(=O)(=O)N2C(C)=O | inactive |
| OC(CNC1CCCC1)COc1ccccc1Br (configuration not stated) | inactive |
| Cc1cccnc1Nc1nc(-c2ccc(O)cc2O)cs1 | inactive |
| CCN(CC)c1ccc(N=Cc2c(O)n(-c3ccccc3C)c(=O)[nH]c2=O)cc1 | inactive |
| Cc1ccc(S(=O)(=O)c2cc3c(=O)n4cccc(C)c4nc3n(C3CCCCC3)c2=N)cc1 | inactive |
| O=c1[nH]cnc2c1C(c1ccccc1[N+](=O)[O-])c1c(nc[nH]c1=O)O2 | inactive |
| O=C(O)CCCC(=O)NNc1nc(-c2ccccc2)c2cc(Cl)ccc2n1 | inactive |
| Oc1ccc(/C=N/Nc2ccc(Cl)nn2)c(O)c1O | inactive |
| COc1ccccc1-n1c(C)nc2cc(C(=O)NCc3ccc4c(c3)OCO4)ccc21 | inactive |
| CCOc1ccccc1N=NC1C(=O)N(C(N)=S)N=C1C (configuration not stated) | inactive |
| Oc1ccc(Br)cc1C=Nc1cccn2cc(-c3ccccc3)nc12 | inactive |
| NS(=O)(=O)c1ccc(N=Nc2ccc(=O)[nH]c2O)cc1 | inactive |
| S=c1[nH]cnc2sc(Nc3ccccc3)nc12 | inactive |
| NC(=S)N=Nc1c(O)[nH]c2cc(F)c(F)cc12 | inactive |
| CCOC(=O)CCCc1sc(N)nc1-c1[nH]c(=O)[nH]c1C | inactive |
| COc1ccc(/C=C2\CCCc3c2nc2ccc(C)cc2c3C(=O)O)cc1O | inactive |
| CC(=O)NNc1ncnc2ccccc12 | inactive |
| O=c1cc(-c2ccccc2)oc2ccc(O)cc12 | inactive |
| CCN1C(=O)c2cccc3c(NC(=O)C4CCCCC4)ccc1c23 | inactive |
| O=[N+]([O-])c1ccc(-c2cn3nc(-c4ccccc4)c(-c4ccccc4)nc3n2)cc1 | inactive |
| COc1ccc(NCc2n[nH]c(=O)c3ccccc23)cc1 | inactive |

| Compound | activity change, negative = inhibition |
| --- | --- |
| CC1(C)CC(=O)C2=C(C1)OC(N)=C(C#N)C2c1ccccc1[N+](=O)[O-] (configuration not stated) | inactive |
| Cc1ccc2oc(=O)c(/C=C(\O)c3ccco3)nc2c1 | inactive |
| O=C(Cc1csc(N2CCOCC2)n1)N/N=C/c1ccc(O)c(O)c1O | inactive |
| CN(C)CC(O)COc1ccc(C(C)(C)c2ccc(OCC(O)CN(C)C)cc2)cc1 (configuration not stated) | inactive |
| COc1ccc(N/C=C/C(=O)c2ccc3c(c2)OCO3)cc1OC | inactive |
| Oc1c(C=Nc2ccccc2)sc(=S)n1Cc1ccccc1 | inactive |
| O=S(=O)(O)c1nc2ccccc2n1Cc1ccc(Cl)cc1Cl | inactive |
| Cc1cc2n(n1)C(c1c[nH]c3ccccc13)Nc1ccccc1-2 (configuration not stated) | inactive |
| Nc1nc(N)c2[nH]cnc2n1 | inactive |
| Cc1ccc(NC(=O)CCC(=O)NNC(=S)Nc2ccc(F)cc2)c(C)c1 | inactive |
| Cc1nnc(N2C(=O)C(O)=C(C(=O)c3ccco3)C2c2ccc(C(C)C)cc2)s1 (configuration not stated) | inactive |
| O=C(NNC(=O)c1cc(Cl)ccc1[N+](=O)[O-])c1csc(N2CCOCC2)n1 | inactive |
| COc1cccc(C2C=C(c3cccs3)Nc3ncnn32)c1OC (configuration not stated) | inactive |
| CCCCn1c(N)c(N(CCOC)C(=O)c2ccc(Br)o2)c(=O)[nH]c1=O | inactive |
| CCOc1c(O)ccc(/C=C2\SC(=S)NC2=O)c1[N+](=O)[O-] | inactive |
| COc1ccc(CCn2c(=N)c(C(=O)NCC3CCCO3)cc3c(=O)n4cccc(C)c4nc32)cc1 (configuration not stated) | inactive |
| C=CCc1cccc2cc(C(=O)NNC(=O)CC#N)c(=O)oc12 | inactive |
| CC1(C)CC(=O)C2=C(C1)Nc1cc(Cl)ccc1S2 | inactive |
| CN(C)c1ccc(N=Cc2nc(-c3ccccc3)oc2OC(=O)c2cccc(Br)c2)cc1 | inactive |
| CN1C(=O)N(C)C(c2cccc([N+](=O)[O-])c2)C2=C1CCCC2=O (configuration not stated) | inactive |
| CCOC(=O)Cc1csc(NC(=O)c2sc3nc4ccc(C)cc4cc3c2N)n1 | inactive |
| N=C1C(c2nc3ccccc3[nH]2)=C(O)CN1c1ccccc1 | inactive |
| CC1=NN2C(=N)/C(=C\c3ccc(SCc4ccccc4)o3)C(=O)N=C2S1 | inactive |
